Columns and labels:
purple nutsedge = experiment: Test B pre/postemergence purple nutsedge; type: in vivo, Cyperus rotundus
Outline: (§1)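 Herbicidal effect was estimated by eye on a ten-point control scale after plants spent twelve to sixteen days in a greenhouse following soil or foliar treatment. Foliar sprays targeted plants at one to four leaves; all doses were formulated in a non-phytotoxic solvent with surfactant.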

bamyardgrass = experiment: Test B flood test barnyardgrass; type: in vivo, Echinochloa crus-galli; conditions: for Plant response rating, Barnyardgrass (0 to 10 scale, 0 is no effect, 10 is complete control) / Barnyardgrass plant response rating (0 to 10 scale, 0 is no effect, 10 is complete control): visual evaluation after twelve to sixteen days; for Barnyardgrass plant response rating (0 to 10 scale, 0 is no effect, 10 is complete control): under heading Pre-emergence
Outline: (§2)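 Flood test on plants grown to the 2-leaf stage; treated plants kept in greenhouse twelve to sixteen days, then visually rated against controls on a 0 (no effect) to 10 (complete control) scale.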

crabgrass = experiment: Test B pre/postemergence crabgrass; type: in vivo, Digitaria sanguinalis
Outline: as §1

duck salad = experiment: Test B flood test duck salad; type: in vivo, Heteranthera limosa; conditions: for Plant response rating, Ducksalad (0 to 10 scale, 0 is no effect, 10 is complete control) / Ducksalad plant response rating (0 to 10 scale, 0 is no effect, 10 is complete control): visual evaluation after twelve to sixteen days; for Ducksalad plant response rating (0 to 10 scale, 0 is no effect, 10 is complete control): under heading Pre-emergence
Outline: as §2

[1] = Postemergence, Rate 125 g/ha, scale 0 to 10, 0 is no effect, 10 is complete control
[2] = Preemergence, Rate 62 g/ha, scale of 0 to 10 where 0 is no effect and 10 is complete control
[3] = Preemergence, Rate 250 g/ha, scale of 0 to 10 where 0 is no effect and 10 is complete control
[4] = Preemergence, Rate 500 g/ha, scale of 0 to 10 where 0 is no effect and 10 is complete control
[5] = Rate 62 g/ha, Postemergence, scale 0 to 10 (0 no effect, 10 complete control)
[6] = Rate 500 g/ha, Postemergence, scale 0 to 10, 0 no effect, 10 complete control
[7] = Rate 62 g/ha, headed Pre-emergence (flood test species), scale 0 to 10 (0 no effect, 10 complete control)
[8] = Rate 125 g/ha, Pre-emergence, flood test species, scale 0 to 10 where 0 is no effect and 10 is complete control
[9] = Rate 250 g/ha, Pre-emergence, flood-test species, scale 0 to 10, 0 is no effect, 10 is complete control
[10] = Rate 500 g/ha, Pre-emergence, flood test species, scale 0 to 10 (0 no effect, 10 complete control)
[11] = Rate 62 g/ha, Postemergence, scale of 0 to 10 where 0 is no effect and 10 is complete control
[12] = Preemergence, Rate 62 g/ha, scale 0 to 10 (0 no effect, 10 complete control)
[13] = Postemergence (flood test), Rate 125 g/ha, scale 0 to 10, 0 is no effect, 10 is complete control
[14] = Rate 62 g/ha, Postemergence (flood test species), scale of 0 to 10 where 0 is no effect and 10 is complete control
[15] = Rate 250 g/ha, Postemergence (flood test species), scale of 0 to 10 where 0 is no effect and 10 is complete control
[16] = Rate 500 g/ha, listed under Postemergence (flood test species), scale 0 to 10, 0 no effect, 10 complete control
[17] = Postemergence, Rate 250 g/ha, scale 0 to 10, 0 is no effect, 10 is complete control
[18] = Rate 62 g/ha, flood test species, Pre-emergence
[19] = Rate 125 g/ha, flood test species
[20] = Postemergence, Rate 250 g/ha, scale 0 to 10
[21] = Postemergence, Rate 500 g/ha, scale of 0 to 10 where 0 is no effect and 10 is complete control
[22] = Preemergence, Rate 125 g/ha, scale of 0 to 10 where 0 is no effect and 10 is complete control
[23] = Preemergence, Rate 250 g/ha, scale 0 to 10, 0 is no effect, 10 is complete control
[24] = Preemergence, Rate 500 g/ha, scale 0 to 10, 0 is no effect, 10 is complete control
[25] = Rate 125 g/ha, Postemergence, scale 0 to 10, 0 is no effect, 10 is complete control
[26] = Postemergence block (flood test species), Rate 250 g/ha, scale 0 to 10
[27] = Postemergence section (flood test species), Rate 500 g/ha, scale of 0 to 10 where 0 is no effect and 10 is complete control
[28] = Rate 125 g/ha, Postemergence section (flood test species), scale 0 to 10, 0 is no effect, 10 is complete control
[29] = Rate 250 g/ha, Pre-emergence (flood test species), scale 0 to 10, 0 is no effect, 10 is complete control

Cc1c(-n2c(=O)on(C(=O)N(c3ccc(F)cc3)C(C)C)c2=O)ccc2ccccc12 [Compound 338]
Plant response rating, Nutsedge (purple nutsedge; [1]): 0 | Nutsedge plant response rating (purple nutsedge; [2]): 0 | Nutsedge plant response rating (0 to 10 scale) (purple nutsedge; Preemergence, Rate 125 g/ha): 0 | Nutsedge plant response rating (purple nutsedge; [3]): 0 | Nutsedge plant response rating (purple nutsedge; [4]): 0 | Nutsedge plant response rating (purple nutsedge; [5]): 0 | Plant response rating, Nutsedge (purple nutsedge; [6]): 0 | Barnyardgrass plant response rating (bamyardgrass; [7]): 0 | Barnyardgrass plant response rating (bamyardgrass; [8]): 0 | Barnyardgrass plant response rating (bamyardgrass; [9]): 0 | Barnyardgrass plant response rating (bamyardgrass; [10]): 9 | Plant response rating, Crabgrass (crabgrass; [1]): 0 | Crabgrass plant response rating (crabgrass; [2]): 0 | Crabgrass plant response rating (0 to 10 scale) (crabgrass; Preemergence, Rate 125 g/ha): 0 | Crabgrass plant response rating (crabgrass; [3]): 0 | Crabgrass plant response rating (crabgrass; [4]): 0 | Crabgrass plant response rating (crabgrass; [5]): 0 | Plant response rating, Crabgrass (crabgrass; [6]): 0 | Ducksalad plant response rating (duck salad; [7]): 0 | Ducksalad plant response rating (duck salad; [8]): 0 | Ducksalad plant response rating (duck salad; [9]): 0 | Ducksalad plant response rating (duck salad; [10]): 0

CC(C)N(C(=O)n1oc(=O)n(C2CCCCCC2)c1=O)c1ccc(Cl)cc1 [Compound 339]
Plant response rating, Nutsedge (purple nutsedge; [1]): 0 | Nutsedge plant response rating (purple nutsedge; [2]): 0 | Nutsedge plant response rating (0 to 10 scale) (purple nutsedge; Preemergence, Rate 125 g/ha): 0 | Nutsedge plant response rating (purple nutsedge; [3]): 0 | Nutsedge plant response rating (purple nutsedge; [4]): 0 | Nutsedge plant response rating (purple nutsedge; [11]): 0 | Plant response rating, Nutsedge (purple nutsedge; [6]): 0 | Barnyardgrass plant response rating (bamyardgrass; [7]): 2 | Barnyardgrass plant response rating (bamyardgrass; [8]): 8 | Barnyardgrass plant response rating (bamyardgrass; [9]): 9 | Barnyardgrass plant response rating (bamyardgrass; [10]): 9 | Plant response rating, Crabgrass (crabgrass; [1]): 0 | Crabgrass plant response rating (crabgrass; [2]): 0 | Crabgrass plant response rating (0 to 10 scale) (crabgrass; Preemergence, Rate 125 g/ha): 0 | Crabgrass plant response rating (crabgrass; [3]): 2 | Crabgrass plant response rating (crabgrass; [4]): 5 | Crabgrass plant response rating (crabgrass; [11]): 0 | Plant response rating, Crabgrass (crabgrass; [6]): 2 | Ducksalad plant response rating (duck salad; [7]): 0 | Ducksalad plant response rating (duck salad; [8]): 0 | Ducksalad plant response rating (duck salad; [9]): 0 | Ducksalad plant response rating (duck salad; [10]): 3

CC(C)N(C(=O)n1oc(=O)n(C2CCC2)c1=O)c1ccccc1 [Compound 348]
Plant response rating, Nutsedge (purple nutsedge; [1]): 0 | Plant response rating, Nutsedge (purple nutsedge; [12]): 0 | Nutsedge plant response rating (0 to 10 scale) (purple nutsedge; Preemergence, Rate 125 g/ha): 0 | Nutsedge plant response rating (purple nutsedge; [3]): 0 | Nutsedge plant response rating (purple nutsedge; [4]): 0 | Nutsedge plant response rating (purple nutsedge; [11]): 0 | Plant response rating, Nutsedge (purple nutsedge; [6]): 6 | Plant response rating, Barnyardgrass (bamyardgrass; [13]): 2 | Barnyardgrass plant response rating (bamyardgrass; [14]): 2 | Plant response rating, Barnyardgrass (bamyardgrass; [15]): 3 | Plant response rating, Barnyardgrass (bamyardgrass; [16]): 7 | Plant response rating, Crabgrass (crabgrass; [1]): 2 | Plant response rating, Crabgrass (crabgrass; [12]): 7 | Crabgrass plant response rating (0 to 10 scale) (crabgrass; Preemergence, Rate 125 g/ha): 7 | Crabgrass plant response rating (crabgrass; [3]): 10 | Crabgrass plant response rating (crabgrass; [4]): 10 | Crabgrass plant response rating (crabgrass; [11]): 1 | Plant response rating, Crabgrass (crabgrass; [6]): 6 | Plant response rating, Ducksalad (duck salad; [13]): 3 | Ducksalad plant response rating (duck salad; [14]): 0 | Plant response rating, Ducksalad (duck salad; [16]): 4

CC(C)N(C(=O)n1oc(=O)n(C2CCC2)c1=O)c1ccc(Cl)cc1 [Compound 349]
Plant response rating, Nutsedge (purple nutsedge; [1]): 0 | Plant response rating, Nutsedge (purple nutsedge; [12]): 0 | Nutsedge plant response rating (0 to 10 scale) (purple nutsedge; Preemergence, Rate 125 g/ha): 0 | Nutsedge plant response rating (purple nutsedge; [3]): 0 | Nutsedge plant response rating (purple nutsedge; [4]): 0 | Nutsedge plant response rating (purple nutsedge; [11]): 0 | Plant response rating, Nutsedge (purple nutsedge; [6]): 0 | Plant response rating, Barnyardgrass (bamyardgrass; [13]): 2 | Barnyardgrass plant response rating (bamyardgrass; [14]): 2 | Plant response rating, Barnyardgrass (bamyardgrass; [15]): 9 | Plant response rating, Barnyardgrass (bamyardgrass; [16]): 9 | Plant response rating, Crabgrass (crabgrass; [1]): 0 | Plant response rating, Crabgrass (crabgrass; [12]): 3 | Crabgrass plant response rating (0 to 10 scale) (crabgrass; Preemergence, Rate 125 g/ha): 6 | Crabgrass plant response rating (crabgrass; [3]): 8 | Crabgrass plant response rating (crabgrass; [4]): 9 | Crabgrass plant response rating (crabgrass; [11]): 0 | Plant response rating, Crabgrass (crabgrass; [6]): 3 | Plant response rating, Ducksalad (duck salad; [13]): 0 | Ducksalad plant response rating (duck salad; [14]): 0 | Plant response rating, Ducksalad (duck salad; [16]): 4

Cc1nsc(Cl)c1Cn1c(=O)on(C(=O)N(c2ccc(F)cc2)C(C)C)c1=O [Compound 373]
Plant response rating, Nutsedge (purple nutsedge; [1]): 0 | Plant response rating, Nutsedge (purple nutsedge; [17]): 0 | Plant response rating, Nutsedge (purple nutsedge; [12]): 0 | Nutsedge plant response rating (0 to 10 scale) (purple nutsedge; Preemergence, Rate 125 g/ha): 0 | Nutsedge plant response rating (purple nutsedge; [3]): 0 | Nutsedge plant response rating (purple nutsedge; [4]): 0 | Nutsedge plant response rating (purple nutsedge; [11]): 0 | Plant response rating, Nutsedge (purple nutsedge; [6]): 0 | Plant response rating, Barnyardgrass (0 to 10 scale, 0 is no effect, 10 is complete control) (bamyardgrass; [18]): 0 | Barnyardgrass plant response rating (0 to 10 scale, 0 is no effect, 10 is complete control) (bamyardgrass; [19]): 0 | Barnyardgrass plant response rating (bamyardgrass; [9]): 0 | Barnyardgrass plant response rating (bamyardgrass; [10]): 0 | Plant response rating, Crabgrass (crabgrass; [1]): 0 | Plant response rating, Crabgrass (crabgrass; [17]): 1 | Plant response rating, Crabgrass (crabgrass; [12]): 4 | Crabgrass plant response rating (0 to 10 scale) (crabgrass; Preemergence, Rate 125 g/ha): 7 | Crabgrass plant response rating (crabgrass; [3]): 10 | Crabgrass plant response rating (crabgrass; [4]): 10 | Crabgrass plant response rating (crabgrass; [11]): 0 | Plant response rating, Crabgrass (crabgrass; [6]): 2 | Plant response rating, Ducksalad (0 to 10 scale, 0 is no effect, 10 is complete control) (duck salad; [18]): 0 | Ducksalad plant response rating (0 to 10 scale, 0 is no effect, 10 is complete control) (duck salad; [19]): 0 | Ducksalad plant response rating (duck salad; [9]): 0 | Ducksalad plant response rating (duck salad; [10]): 0

C=CC[Si](C)(C)Cn1c(=O)on(C(=O)N(c2ccc(F)cc2)C(C)C)c1=O [Compound 426]
Nutsedge plant response rating (purple nutsedge; [20]): 0 | Nutsedge plant response rating (purple nutsedge; [21]): 3 | Plant response rating, Nutsedge (purple nutsedge; [12]): 0 | Plant response rating, Nutsedge (purple nutsedge; [22]): 0 | Nutsedge plant response rating (purple nutsedge; [23]): 0 | Nutsedge plant response rating (purple nutsedge; [24]): 0 | Nutsedge plant response rating (purple nutsedge; [25]): 0 | Barnyardgrass plant response rating (bamyardgrass; [26]): 0 | Barnyardgrass plant response rating (bamyardgrass; [27]): 0 | Barnyardgrass plant response rating (bamyardgrass; [14]): 0 | Barnyardgrass plant response rating (bamyardgrass; [28]): 0 | Crabgrass plant response rating (crabgrass; [20]): 9 | Crabgrass plant response rating (crabgrass; [21]): 9 | Plant response rating, Crabgrass (crabgrass; [12]): 8 | Plant response rating, Crabgrass (crabgrass; [22]): 9 | Crabgrass plant response rating (crabgrass; [23]): 10 | Crabgrass plant response rating (crabgrass; [24]): 10 | Crabgrass plant response rating (crabgrass; [11]): 1 | Crabgrass plant response rating (crabgrass; [25]): 6 | Ducksalad plant response rating (duck salad; [26]): 0 | Ducksalad plant response rating (duck salad; [27]): 0 | Ducksalad plant response rating (duck salad; [14]): 0 | Ducksalad plant response rating (duck salad; [28]): 0

CC(C)N(C(=O)n1oc(=O)n(CNC(=O)c2ccccc2)c1=O)c1ccc(F)cc1 [Compound 445]
Nutsedge plant response rating (purple nutsedge; [20]): 0 | Nutsedge plant response rating (purple nutsedge; [21]): 0 | Plant response rating, Nutsedge (purple nutsedge; [2]): 0 | Plant response rating, Nutsedge (purple nutsedge; [22]): 0 | Nutsedge plant response rating (purple nutsedge; [23]): 0 | Nutsedge plant response rating (purple nutsedge; [24]): 0 | Nutsedge plant response rating (purple nutsedge; [5]): 0 | Nutsedge plant response rating (purple nutsedge; [25]): 0 | Plant response rating, Barnyardgrass (0 to 10 scale, 0 is no effect, 10 is complete control) (bamyardgrass; [18]): 0 | Barnyardgrass plant response rating (0 to 10 scale, 0 is no effect, 10 is complete control) (bamyardgrass; [19]): 0 | Barnyardgrass plant response rating (bamyardgrass; [29]): 0 | Barnyardgrass plant response rating (bamyardgrass; [10]): 0 | Crabgrass plant response rating (crabgrass; [20]): 3 | Crabgrass plant response rating (crabgrass; [21]): 7 | Plant response rating, Crabgrass (crabgrass; [2]): 0 | Plant response rating, Crabgrass (crabgrass; [22]): 2 | Crabgrass plant response rating (crabgrass; [23]): 3 | Crabgrass plant response rating (crabgrass; [24]): 9 | Crabgrass plant response rating (crabgrass; [5]): 0 | Crabgrass plant response rating (crabgrass; [25]): 1 | Plant response rating, Ducksalad (0 to 10 scale, 0 is no effect, 10 is complete control) (duck salad; [18]): 0 | Ducksalad plant response rating (0 to 10 scale, 0 is no effect, 10 is complete control) (duck salad; [19]): 0 | Ducksalad plant response rating (duck salad; [29]): 0 | Ducksalad plant response rating (duck salad; [10]): 0

Source: US6737383B1, “Herbicidal oxadiazolidines” (priority 1999, dated 2004)
